Drawing on patent publication US10968199B2, “Cycloalkyl-containing apoptosis signal-regulating kinase 1 inhibitors and methods of use thereof” (ENANTA PHARMACEUTICALS, INC., priority 2018, dated 2021), this text covers IC50 for 29 compounds.

Molecules are shown by their SMILES. pIC50: −log10 of the molar value.

What is called pIC50 is the negative decadic logarithm of the IC50, by convention in mol/L. A lower pIC50 goes with a large IC50.

The target in this assay is ASK1 kinase (Homo sapiens (Human), UniProt Q99683). The assay is described as follows: HTRF KinEASE assay of ASK1 kinase inhibition. The class given is biochemical. Particulars: HTRF KinEASE-STK TR-FRET; 5 nM ASK1, 1 uM STK3 peptide substrate, 100 uM ATP, 3 hours. On the procedure: The ability (IC50) of compounds to inhibit ASK1 kinase activity was determined by HTRF® KinEASE™ Assay System.
Sequence of ASK1 kinase (Q99683 whole entry): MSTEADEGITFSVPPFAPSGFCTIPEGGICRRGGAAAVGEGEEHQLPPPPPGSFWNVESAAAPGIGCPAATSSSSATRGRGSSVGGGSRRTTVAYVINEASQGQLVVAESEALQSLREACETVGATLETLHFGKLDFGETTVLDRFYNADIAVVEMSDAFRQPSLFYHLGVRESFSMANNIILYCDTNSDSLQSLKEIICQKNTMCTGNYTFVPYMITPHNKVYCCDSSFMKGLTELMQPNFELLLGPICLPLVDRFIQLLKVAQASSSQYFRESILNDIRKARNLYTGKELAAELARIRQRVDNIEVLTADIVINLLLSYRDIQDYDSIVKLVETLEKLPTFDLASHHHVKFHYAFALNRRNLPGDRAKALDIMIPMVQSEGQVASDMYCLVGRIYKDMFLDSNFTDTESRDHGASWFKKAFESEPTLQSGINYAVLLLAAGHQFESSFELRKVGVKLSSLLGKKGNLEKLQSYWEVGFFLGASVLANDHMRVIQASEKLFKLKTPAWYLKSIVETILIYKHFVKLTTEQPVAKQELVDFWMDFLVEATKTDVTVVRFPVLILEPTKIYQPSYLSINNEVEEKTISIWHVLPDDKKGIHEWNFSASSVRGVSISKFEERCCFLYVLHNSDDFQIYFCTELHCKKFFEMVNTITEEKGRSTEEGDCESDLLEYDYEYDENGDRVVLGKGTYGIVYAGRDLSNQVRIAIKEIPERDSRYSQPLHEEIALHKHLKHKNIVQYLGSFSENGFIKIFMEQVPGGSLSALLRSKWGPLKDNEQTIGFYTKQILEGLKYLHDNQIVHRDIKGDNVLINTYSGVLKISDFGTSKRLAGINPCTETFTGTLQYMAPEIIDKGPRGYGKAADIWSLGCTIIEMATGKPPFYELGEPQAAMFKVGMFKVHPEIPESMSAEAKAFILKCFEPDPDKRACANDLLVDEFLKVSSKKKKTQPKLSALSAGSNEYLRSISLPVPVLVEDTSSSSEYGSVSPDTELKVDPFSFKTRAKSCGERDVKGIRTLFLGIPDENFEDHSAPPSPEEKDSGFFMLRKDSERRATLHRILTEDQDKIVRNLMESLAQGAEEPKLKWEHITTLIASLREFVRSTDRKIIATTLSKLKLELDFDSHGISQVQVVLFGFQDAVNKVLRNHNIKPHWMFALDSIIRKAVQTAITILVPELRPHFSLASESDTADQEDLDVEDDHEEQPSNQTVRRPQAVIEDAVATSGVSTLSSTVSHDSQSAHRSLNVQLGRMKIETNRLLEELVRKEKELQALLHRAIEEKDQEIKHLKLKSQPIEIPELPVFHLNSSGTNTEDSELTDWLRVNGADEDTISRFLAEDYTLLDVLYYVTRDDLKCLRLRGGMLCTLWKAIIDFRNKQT
ASK1 was purchased from Thermofisher (Catalogue #PV4011), ATP was purchased from Sigma (Catalogue #A7699), HTRF® KinEASE™ Assay System was obtained from Cisbio (Bedford, Mass.). ½ Area plate was purchased from Perkin Elmer (Catalogue # #6005560). HTRF® KinEASE™-STK is a generic method for measuring serine/threonine kinase activities using a time-resolved fluorescence resonance energy transfer (TR-FRET) immunoassay. The IC50 value for each compound was determined in the presence of compound (various concentration from 0 to 10 μM) and a fixed amount of ATP and peptide substrates. The test compound, 1 uM STK3 peptide substrate, and 5 nM of ASK1 kinase are incubated with kinase reaction buffer containing 50 mM HEPES pH 7.5, 0.01% BRIJ-35, 10 mM MgCl2, and 1 mM EGTA for 30 minutes. 100 uM ATP is added to start kinase reaction and incubated for 3 hours. The STK3-antibody labeled with Eu^3+-Cryptate and 125 nM streptavidin-XL665 are mixed in a single addition with stop reagents provided by the Cisbio kit used to stop the kinase reaction. Fluorescence is detected using an Envision Multilabeled 2014 reader from PerkinElmer. The Fluorescence is measured at 615 nm (Cryptate) and 665 nm (XL665) and a ratio of 665 nm/615 nm is calculated for each well. The resulting TR-FRET is proportional to the phosphorylation level. Staurosporine was used as the positive control. IC50 was determined by XLfit 5.3.
By using above method, the inhibition of ASK1 was tested for the compound of formula (I). IC50 ranges are as follows: A<1 nM; 1 nM<B<10 nM; C>10 nM.
The compound `Cc1cc(F)c(C(=O)Nc2cccc(-c3nncn3C(C)C)n2)cc1C1CC1C(=O)N1CCC(F)(F)C1` (centres unmarked) [Example 12] showed a pIC50 below 8.00.
With `COc1cc(C)c(C2CC2NC(=O)OCC(F)(F)F)cc1C(=O)Nc1cccc(-c2nncn2C(C)C)n1` (centres unmarked) [Example 17], the pIC50 was 8.00 to 9.00.
In the case of `Cc1cc(F)c(C(=O)Nc2cccc(-c3nncn3C(C)C)n2)cc1C1CC1C(=O)O` (centres unmarked) [Example 2, 2-(4-fluoro-5-((6-(4-isopropyl-4H-1,2,4-triazol-3-yl)pyridin-2-yl)carbamoyl)-2-methylphenyl)cyclopropane-1-carboxylic acid] it was below 8.00; in that of `Cc1cc(F)c(C(=O)Nc2cccc(-c3nncn3[C@H](C)CO)n2)cc1C1CC1NC(=O)N(C)CCC(F)(F)F` (some centres unmarked) [Example 26], 8.00 to 9.00; in that of `CCOC(=O)C1CC1c1cc(C(=O)Nc2cccc(-c3nncn3C(C)C)n2)ncc1C` (centres unmarked) [Example 15], 8.00 to 9.00.
As for `COc1cc(C)c(C2CC2NC(=O)C(C)(C)C)cc1C(=O)Nc1cccc(-c2nncn2C(C)C)n1` (centres unmarked) [Example 23], the pIC50 was 8.00 to 9.00.
Next, `Cc1cc(F)c(C(=O)Nc2cccc(-c3nncn3C(C)C)n2)cc1C1CC1NC(=O)OC(C)(C)C` (centres unmarked) [Example 4, tert-butyl (2-(4-fluoro-5-((6-(4-isopropyl-4H-1,2,4-triazol-3-yl)pyridin-2-yl)carbamoyl)-2-methylphenyl)cyclopropyl)carbamate]: 8.00 to 9.00; `Cc1cc(F)c(C(=O)Nc2cccc(-c3nncn3[C@H](C)CO)n2)cc1C1CC1NC(=O)OCC(F)(F)F` (some centres unmarked) [Example 25]: below 8.00; `Cc1cc(F)c(C(=O)Nc2cccc(-c3nncn3C(C)C)n2)cc1C1CC1NC(=O)N(C)CCC(F)(F)F` (centres unmarked) [Example 13]: below 8.00.
In the case of `Cc1cc(F)c(C(=O)Nc2cccc(-c3nncn3[C@H](C)CO)n2)cc1C1CC1NS(=O)(=O)CCC(F)(F)F` (some centres unmarked) [Example 27] it was 8.00 to 9.00; in that of `Cc1cc(F)c(C(=O)Nc2cccc(-c3nncn3C(C)C)n2)cc1C1CC1NC(=O)N1CCC(F)(F)C1` (centres unmarked) [Example 5, 3,3-difluoro-N-(2-(4-fluoro-5-((6-(4-isopropyl-4H-1,2,4-triazol-3-yl)pyridin-2-yl)carbamoyl)-2-methylphenyl)cyclopropyl)pyrrolidine-1-carboxamide], below 8.00; in that of `COc1cc(C)c(C2CC2NC(=O)N(C)CCC(F)(F)F)cc1C(=O)Nc1cccc(-c2nncn2C(C)C)n1` (centres unmarked) [Example 18], 8.00 to 9.00.
Next, `COc1cc(C)c(C2CC2NS(=O)(=O)N(C)C)cc1C(=O)Nc1cccc(-c2nncn2C(C)C)n1` (centres unmarked) [Example 20]: 8.00 to 9.00; `Cc1cc(F)c(C(=O)Nc2cccc(-c3nncn3[C@H](C)CO)n2)cc1C1CC1NS(=O)(=O)N(C)C` (some centres unmarked) [Example 28]: 8.00 to 9.00; `Cc1cnc(C(=O)Nc2cccc(-c3nnnn3[C@H](C)CO)n2)cc1C1CC(NC(=O)OC(C)(C)C)C1` (stereo partly drawn) [Example 9, tert-butyl (R)-(3-(2-((6-(1-(1-hydroxypropan-2-yl)-1H-tetrazol-5-yl)pyridin-2-yl)carbamoyl)-5-methylpyridin-4-yl)cyclobutyl)carbamate]: below 8.00.
As to `Cc1cc(F)c(C(=O)Nc2cccc(-c3nncn3C(C)C)n2)cc1C1CC1NS(=O)(=O)C1CC1` (centres unmarked) [Example 11], the negative-log IC50 (pIC50) is 8.00 to 9.00.
In the case of `Cc1cnc(C(=O)Nc2cccc(-c3nncn3C(C)C)n2)cc1C1CC1NC(=O)OC(C)(C)C` (centres unmarked) [Example 8, tert-butyl (2-(2-((6-(4-isopropyl-4H-1,2,4-triazol-3-yl)pyridin-2-yl)carbamoyl)-5-methylpyridin-4-yl)cyclopropyl)carbamate] it was below 8.00.
Next, `Cc1cc(F)c(C(=O)Nc2cccc(-c3nncn3C(C)C)n2)cc1C1CC1NC(=O)c1ccc(F)cc1` (centres unmarked) [Example 6, 2-fluoro-5-(2-(4-fluorobenzamido)cyclopropyl)-N-(6-(4-isopropyl-4H-1,2,4-triazol-3-yl)pyridin-2-yl)-4-methylbenzamide]: below 8.00; `Cc1cc(F)c(C(=O)Nc2cccc(-c3nncn3C(C)C)n2)cc1C1CC1C(=O)NC1CC1` (centres unmarked) [Example 3, 5-(2-(cyclopropylcarbamoyl)cyclopropyl)-2-fluoro-N-(6-(4-isopropyl-4H-1,2,4-triazol-3-yl)pyridin-2-yl)-4-methylbenzamide]: below 8.00; `CCOC(=O)C1CC1c1cc(C(=O)Nc2cccc(-c3nncn3C(C)C)n2)c(F)cc1C` (centres unmarked) [Example 1, ethyl 2-(4-fluoro-5-((6-(4-isopropyl-4H-1,2,4-triazol-3-yl)pyridin-2-yl)carbamoyl)-2-methylphenyl)cyclopropane-1-carboxylate]: 8.00 to 9.00.
In turn, `COc1cc(C)c(C2CC2NC(=O)c2ccc(F)cc2)cc1C(=O)Nc1cccc(-c2nncn2C(C)C)n1` (centres unmarked) [Example 22] showed a pIC50 of 8.00 to 9.00.
For `COc1cc(C)c(C2CC2C(=O)N2CCC(F)(F)C2)cc1C(=O)Nc1cccc(-c2nncn2C(C)C)n1` (centres unmarked) [Example 16], the pIC50 was 8.00 to 9.00.
In the case of `Cc1cc(F)c(C(=O)Nc2cccc(-c3nncn3[C@H](C)CO)n2)cc1C1CC1C(=O)N1CCC(F)(F)C1` (some centres unmarked) [Example 24] it was 8.00 to 9.00; in that of `Cc1cc(F)c(C(=O)Nc2cccc(-c3nncn3C(C)C)n2)cc1C1CC1NS(=O)(=O)N(C)C` (centres unmarked) [Example 7, 5-(2-((N,N-dimethylsulfamoyl)amino)cyclopropyl)-2-fluoro-N-(6-(4-isopropyl-4H-1,2,4-triazol-3-yl)pyridin-2-yl)-4-methylbenzamide], below 8.00.
In the case of `Cc1cc(F)c(C(=O)Nc2cccc(-c3nncn3[C@H](C)CO)n2)cc1C1CC1NC(=O)C(C)(C)C` (some centres unmarked) [Example 29] it was 8.00 to 9.00; in that of `Cc1cnc(C(=O)Nc2cccc(-c3nncn3C(C)C)n2)cc1C1CC1NC(=O)OCC(F)(F)F` (centres unmarked) [Example 19], below 8.00; in that of `Cc1cc(F)c(C(=O)Nc2cccc(-c3nncn3C(C)C)n2)cc1C1CC1NC(=O)C(C)(C)C` (centres unmarked) [Example 14], below 8.00.
In the case of `Cc1cc(F)c(C(=O)Nc2cccc(-c3nncn3C(C)C)n2)cc1C1CC1NC(=O)OCC(F)(F)F` (centres unmarked) [Example 10] it was 8.00 to 9.00; in that of `COc1cc(C)c(C2CC2NS(=O)(=O)CCC(F)(F)F)cc1C(=O)Nc1cccc(-c2nncn2C(C)C)n1` (centres unmarked) [Example 21], 8.00 to 9.00.
